Converted amounts (≈) assume the structure as drawn. The source made the active and inactive calls. The calls are words filed in the database; no cut-off is given here.
Assays:
Vero = assay: Cytotoxicity against african green monkey Vero cells up to 4.6 ug/ml after 48 hrs by neutral red assay; type: cell-based; settings: chlorocebus sabaeus
Leishmania donovani [1] = assay: Antileishmanial activity against axenic amastigote of Leishmania donovani after 72 hrs by alamar blue assay; type: functional, organism-based
Leishmania donovani [2] = assay: Antileishmanial activity against promastigote of Leishmania donovani after 72 hrs by alamar blue assay; type: functional, organism-based
[3] = system: Mycobacterium intracellulare; assay: Antibacterial activity against Mycobacterium intracellulare ATCC 23068 by alamar blue assay; type: functional, organism-based; settings: Mycobacterium intracellulare, ATCC 23068
[4] = Leishmania donovani, 72 h, read-out: IC50

Compound | Activity (Vero) | IC90 (Leishmania donovani [1]; Leishmania donovani, 72 h) | IC50 (Leishmania donovani [1]; [4]) | IC90 (Leishmania donovani [2]; Leishmania donovani, 72 h) | IC50 (Leishmania donovani [2]; [4]) | IC50 (Leishmania donovani [1]) | IC90 (Leishmania donovani [1]) | IC50 (Leishmania donovani [2]) | IC90 (Leishmania donovani [2]) | MBC [3] | IC50 ([3]; read-out: IC50)
COc1ccc2[nH]cc(C(c3cccs3)c3c[nH]c4ccc(OC)cc34)c2c1 | Non-toxic | 84.8 µM | 59 µM | 65.8 µM | 38.1 µM | – | – | – | – | – | –
Fc1cc(F)cc(C(c2c[nH]c3ccc(I)cc23)c2c[nH]c3ccc(I)cc23)c1 | Non-toxic | 44.5 µM | 23.2 µM | 41.2 µM | 24.2 µM | – | – | – | – | – | –
COc1ccc2[nH]cc(C(c3ccc(O)cc3)c3c[nH]c4ccc(OC)cc34)c2c1 | Non-toxic | 76.3 µM | 42.9 µM | 91 µM | 81.1 µM | – | – | – | – | – | –
O=[N+]([O-])c1ccc(C(c2c[nH]c3ccc(I)cc23)c2c[nH]c3ccc(I)cc23)cc1 | Non-toxic | 38.4 µM | 8.37 µM | 10.2 µM | 7.88 µM | – | – | – | – | – | –
Ic1ccc2[nH]cc(C(c3cccc4ccccc34)c3c[nH]c4ccc(I)cc34)c2c1 | Non-toxic | – | – | – | – | Not Active | inactive | Not Active | inactive | – | –
COc1ccc2[nH]cc(C(c3ccc([N+](=O)[O-])cc3)c3c[nH]c4ccc(OC)cc34)c2c1 | Non-toxic | 64.2 µM | 14.7 µM | 18.8 µM | 12.1 µM | – | – | – | – | – | –
O=C(O)c1cn(C2CC2)c2cc(N3CCNCC3)c(F)cc2c1=O [CIPROFLOXACIN] | – | – | – | – | – | – | – | – | – | 3.02 µM (≈ 1 µg/mL) | 1 µM
c1ccc2c(C(c3c[nH]c4ccccc34)c3c[nH]c4ccccc34)c3ccccc3cc2c1 | Non-toxic | – | 53.4 µM | 91.9 µM | 82 µM | – | inactive | – | – | – | –
Ic1ccc2[nH]cc(C(c3c4ccccc4cc4ccccc34)c3c[nH]c4ccc(I)cc34)c2c1 | Non-toxic | – | – | – | – | Not Active | inactive | Not Active | inactive | – | –
COc1cc(C(c2c[nH]c3ccccc23)c2c[nH]c3ccccc23)ccc1O | Non-toxic | – | 75 µM | 98.9 µM | 86 µM | – | inactive | – | – | – | –
O=[N+]([O-])c1ccc(C(c2c[nH]c3ccccc23)c2c[nH]c3ccccc23)cc1 | Non-toxic | 72.3 µM | 40.8 µM | 54.3 µM | 15.9 µM | – | – | – | – | – | –
Clc1cccc(Cl)c1C(c1c[nH]c2ccc(I)cc12)c1c[nH]c2ccc(I)cc12 | Non-toxic | – | – | – | – | Not Active | inactive | Not Active | inactive | – | –
N=C(N)c1ccc(OCCCCCOc2ccc(C(=N)N)cc2)cc1 [PENTAMIDINE] | – | 14.3 µM | – | 6.21 µM | 3.29 µM | – | – | – | – | – | –
COc1ccc2[nH]cc(C(c3c4ccccc4cc4ccccc34)c3c[nH]c4ccc(OC)cc34)c2c1 | Non-toxic | – | 39.8 µM | 64.9 µM | 34.6 µM | – | inactive | – | – | – | –
COc1ccc2[nH]cc(C(c3ccc(O)c(OC)c3)c3c[nH]c4ccc(OC)cc34)c2c1 | Non-toxic | – | – | – | – | Not Active | inactive | Not Active | inactive | – | –
COc1ccc2[nH]cc(C(c3ccc(Br)cc3)c3c[nH]c4ccc(OC)cc34)c2c1 | Non-toxic | – | – | 58.5 µM | 32.7 µM | Not Active | inactive | – | – | – | –
COc1ccc2[nH]cc(C(c3ccc([N+](=O)[O-])o3)c3c[nH]c4ccc(OC)cc34)c2c1 | Non-toxic | – | – | 60 µM | 37.3 µM | Not Active | inactive | – | – | – | –
